Laboratory results as given in PubChem BioAssay AID330 (DTP/NCI, 2004).
Several values for one entry are separate records, joined by “and”; a condition that tells them apart may be missing. Identical values can stand only once. Inconclusive results and toxic doses are left out.

System: P388 leukemia ip, CD2F1 mice, survival T/C
Assay: NCI In Vivo Anticancer Drug Screen. Data for tumor model P388 Leukemia (intraperitoneal) in CD2F1 (CDF1) mice
Conditions: endpoint: median survival time, higher = longer survival
Procedure, shortened: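 Mice carrying the transplanted tumor received test compound or vehicle. Survival was recorded in each group, and the value is the treated-group measurement divided by that of the vehicle-treated control group.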

[1] = dose: 100.0 mg/kg/injection, schedule: Q01DX009 (ip), vehicle: saline with Tween-80
[2] = dose: 50.0 mg/kg/injection, schedule: Q01DX009 (ip), vehicle: saline
[3] = dose: 100.0 mg/kg/injection, schedule: Q01DX009 (ip), vehicle: saline
[4] = dose: 60.0 mg/kg/injection, schedule: Q01DX005 (ip), vehicle: saline with Tween-80
[5] = dose: 120.0 mg/kg/injection, schedule: Q01DX005 (ip), vehicle: saline with Tween-80
[6] = dose: 240.0 mg/kg/injection, schedule: Q01DX005 (ip), vehicle: saline with Tween-80
[7] = dose: 100.0 mg/kg/injection, schedule: Q01DX001 (ip), vehicle: Klucel (hydroxypropylcellulose) (HPC)
[8] = dose: 200.0 mg/kg/injection, schedule: Q01DX001 (ip), vehicle: Klucel (hydroxypropylcellulose) (HPC)
[9] = dose: 50.0 mg/kg/injection, schedule: Q01DX005 (ip), vehicle: Klucel (hydroxypropylcellulose) (HPC)
[10] = dose: 100.0 mg/kg/injection, schedule: Q01DX005 (ip), vehicle: Klucel (hydroxypropylcellulose) (HPC)
[11] = dose: 200.0 mg/kg/injection, schedule: Q01DX005 (ip), vehicle: Klucel (hydroxypropylcellulose) (HPC)

`CN=C(C)NO` was tested, and the T/C (dose: 50.0 mg/kg/injection, schedule: Q01DX005 (ip), vehicle: saline) was 106 % of control, the T/C (dose: 100.0 mg/kg/injection, schedule: Q01DX005 (ip), vehicle: saline) was 104 % of control and the T/C (dose: 200.0 mg/kg/injection, schedule: Q01DX005 (ip), vehicle: saline) was 99 % of control.

With `Cc1ccc(S(=O)(=O)CC(=O)c2ccc(Br)cc2)cc1` the T/C [1] was 92 % of control.

For `CCCc1n(O)c(C)c(C)[n+]1[O-]`, the T/C (dose: 50.0 mg/kg/injection, schedule: Q01DX009 (ip), vehicle: saline with Tween-80) was 91 % of control, the T/C [1] was 100 % of control and the T/C (dose: 200.0 mg/kg/injection, schedule: Q01DX009 (ip), vehicle: saline with Tween-80) was 104 % of control.

`O=C(O)c1cc2cc([N+](=O)[O-])ccc2[se]1` was tested, and the T/C (dose: 12.5 mg/kg/injection, schedule: Q01DX009 (ip), vehicle: suspension in saline) was 100 % of control, the T/C (dose: 25.0 mg/kg/injection, schedule: Q01DX009 (ip), vehicle: suspension in saline) was 101 % of control and the T/C [2] was 86 % of control. For the same compound, the T/C (dose: 50.0 mg/kg/injection, schedule: Q01DX009 (ip), vehicle: suspension in saline) was 102 % of control and the T/C (dose: 200.0 mg/kg/injection, schedule: Q01DX009 (ip), vehicle: saline) was 100 % of control.

In the case of `O=C(CC(=O)N1CCN(c2ccccn2)CC1)N1CCN(c2ccccn2)CC1`, the T/C [2] is reported as 101 % of control and the T/C [3] is reported as 102 % of control.

In the case of `CC1=C2CCCCCC2(O)OC1=O` (stereo not given), the T/C (dose: 6.25 mg/kg/injection, schedule: Q01DX001 (ip), vehicle: saline) is reported as 109 % of control, the T/C (dose: 12.5 mg/kg/injection, schedule: Q01DX001 (ip), vehicle: saline) is reported as 111 % of control and the T/C (dose: 25.0 mg/kg/injection, schedule: Q01DX001 (ip), vehicle: saline) is reported as 104 % of control and 117 % of control. The T/C (dose: 50.0 mg/kg/injection, schedule: Q01DX001 (ip), vehicle: saline) was 120 % of control and the T/C (dose: 100.0 mg/kg/injection, schedule: Q01DX001 (ip), vehicle: saline) was 100 % of control.

With `CC(C)NC(=O)CN1C(=O)NC(C)(c2ccccc2)C1=O` (stereo not given) the T/C [4] was 101 % of control, the T/C [5] was 95 % of control and the T/C [6] was 94 % of control.

With `O=C(O)CSc1ccc(NC(=O)NC2CCCCC2)cc1` the T/C (dose: 100.0 mg/kg/injection, schedule: Q04DX003 (ip), vehicle: saline with Tween-80) was 100 % of control, the T/C (dose: 200.0 mg/kg/injection, schedule: Q04DX003 (ip), vehicle: saline with Tween-80) was 100 % of control and the T/C (dose: 400.0 mg/kg/injection, schedule: Q04DX003 (ip), vehicle: saline with Tween-80) was 100 % of control.

With `C[c-]1[c-][c-][c-][c-]1.C[c-]1[c-][c-][c-][c-]1.[C-]#[O+].[C-]#[O+].[C-]#[O+].[C-]#[O+].[C-]#[O+].[C-]#[O+].[Mo].[Mo]` the T/C (dose: 100.0 mg/kg/injection, schedule: Q01DX005 (ip), vehicle: saline with Tween-80) was 98 % of control and the T/C (dose: 200.0 mg/kg/injection, schedule: Q01DX005 (ip), vehicle: saline with Tween-80) was 93 % of control.

For `CN(C)c1ccc(C2=CC(c3ccc(N(C)C)cc3)(c3ccc(C(F)(F)F)cc3)C=C(c3ccc(N(C)C)cc3)S2)cc1`, the T/C [7] was 101 % of control and the T/C [8] was 92 % of control.

For `Nc1[nH]cnc(=S)c1N`, the T/C (dose: 100.0 mg/kg/injection, schedule: Q04DX002 (ip), vehicle: saline with Tween-80) was 106 % of control, the T/C (dose: 200.0 mg/kg/injection, schedule: Q04DX002 (ip), vehicle: saline with Tween-80) was 102 % of control and the T/C (dose: 400.0 mg/kg/injection, schedule: Q04DX002 (ip), vehicle: saline with Tween-80) was 106 % of control.

With `Cc1sc2ccccc2c(=O)c1CO` the T/C [4] was 97 % of control, the T/C [5] was 97 % of control and the T/C [6] was 97 % of control.

For `COc1ccc2nccc(CO)c2c1`, the T/C [9] was 102 % of control, the T/C [10] was 102 % of control and the T/C [11] was 96 % of control.

In the case of `CC1=C(N2CCOCC2)C(N2CCOCC2)=C(C)C(=O)C1=O`, the T/C (dose: 12.5 mg/kg/injection, schedule: Q01DX005 (ip), vehicle: Klucel (hydroxypropylcellulose) (HPC)) is reported as 108 % of control, the T/C (dose: 25.0 mg/kg/injection, schedule: Q01DX005 (ip), vehicle: Klucel (hydroxypropylcellulose) (HPC)) is reported as 101 % of control and the T/C [9] is reported as 108 % of control. For the same compound, the T/C [10] was 97 % of control and the T/C [11] was 96 % of control.

For `CCOC(=O)CC/C(=C/c1cccc2cc(OC)ccc12)[N+](=O)[O-]`, the T/C (dose: 50.0 mg/kg/injection, schedule: Q01DX001 (ip), vehicle: Klucel (hydroxypropylcellulose) (HPC)) was 100 % of control, the T/C [7] was 101 % of control and the T/C [8] was 104 % of control.

With `COC(=O)CC1(O)C(=O)OCc2c1cc1n(c2=O)Cc2c-1nc1ccccc1c2OC` (stereo not given) the T/C (dose: 12.5 mg/kg/injection, schedule: Q01DX009 (ip), vehicle: saline) was 167 % of control, the T/C [2] was 194 % of control and the T/C [3] was 150 % of control and 184 % of control. For the same compound, the T/C (dose: 100.0 mg/kg/injection, schedule: Q01DX009 (ip), vehicle: suspension in saline) was 86 % of control.
